Read-outs that look alike come from different tables or passages of the source.
Experiment: Effect of food on plasma pharmacokinetics after single oral dose of SF2a/b (Example 2)
Format: in vivo, human
Conditions: both sexes, human, plasma, oral; for Tmax: read-out: tmax, Median
Method: The effect of food on the pharmacokinetics (PK) of Compound (a) was assessed in healthy participants after a single oral dose of SF2a/b, described in Example 1, administered at different dose levels in a randomized single dose, 2-period crossover study. The effect of food on the PK of Compound (a) was determined at 3 different dose levels (50 mg, 200 mg, and 800 mg) for a standardized breakfast; at one dose level (800 mg) for a high-fat, high-calorie breakfast; at two dose levels (200 mg and 800 mg) for a low-fat, low-calorie breakfast, as well as for a low-fat, high-calorie breakfast. 124 healthy adult participants (male and female, 18 to 55 years of age) were enrolled in this study. The volunteers were divided in six panels, which were organized as follows: • Panel […]: • Treatment D: A single 800-mg dose (4×200-mg tablets) of Compound (a) SF2b in fasted conditions. • Treatment E: A single 800-mg dose (4×200-mg tablets) of Compound (a) SF2b in fed conditions (standardized breakfast). • Treatments D and E (treatment sequence group 1 [n=8]: DE; treatment sequence group 2 [n=8]: ED). Panel 4, n=14: • Treatment F: A single 200-mg dose (1×200-mg tablet) of Compound (a) SF2b in fasted conditions. • Treatment G: A single 200-mg dose (1×200-mg tablet) of Compound (a) SF2b, in fed conditions (standardized breakfast). • Treatments F and G (treatment sequence group 1 [n=7]: FG; treatment sequence group 2 [n=7]: GF). Panel […]: • Treatment H: A single 50-mg dose (1×50-mg tablet) of Compound (a) SF2a in fasted conditions. • Treatment I: A single 50-mg dose (1×50-mg tablet) of Compound (a) SF2a in fed conditions (standardized breakfast). • Treatments H and I (treatment sequence group 1 [n=7]: HI; treatment sequence group 2 [n=7]: IH). Panel 6 (n=16): • Treatment J: single 800-mg dose (4×200-mg tablets) of Compound (a) administered as SF2b in fasted conditions. • Treatment K: single 800-mg dose (4×200-mg tablets) of Compound (a) administered as SF2b in fed conditions (high-fat, high-calorie breakfast). • Treatments J and K (treatment sequence group 1 [n=8]: JK; treatment sequence group 2 [n=8]: KJ). Panel 7 (n=32): • Treatment L: single 800-mg dose (4×200-mg tablets) of Compound (a) administered as SF2b in fed conditions (low-fat, low-calorie breakfast). • Treatment M: single 800-mg dose (4×200-mg tablets) of Compound (a) administered as SF2b in fed conditions (low-fat, high-calorie breakfast). • Treatment L (n=16) or Treatment M (n=16). Panel 8 (n=32): • Treatment N: single 200-mg dose (1×200-mg tablet) of Compound (a) administered as SF2b in fed conditions (low-fat, low-calorie breakfast). • Treatment O: single 200-mg dose (1×200-mg tablet) of Compound (a) administered as SF2b in fed conditions (low-fat, high-calorie breakfast). • Treatment N (n=16) or Treatment O (n=16). Tablets were administered orally, together with approximately 240 mL of non-carbonated water, in fasted or fed conditions. […] On day 1 of all treatments in each panel, the participants had fasted overnight for at least 10 hours before study drug intake. Intake of water was not allowed from 2 hours before and until 2 hours after study drug intake, except for the water used for study drug intake and breakfast. In case of intake in fed conditions, study drug was administered within 10 minutes after completing a standardized breakfast (Treatments E, G, and I), or a high-fat, high-calorie breakfast (Treatment K), a low-fat, low-calorie breakfast (Treatments L and N), or a low-fat, high-calorie breakfast (Treatments M and O). For treatments E, G, and I a standardized breakfast was served, consisting of (or its equivalent) 4 slices of bread, 2 slices of ham or cheese, butter, jelly, and 1 or 2 cups (up to 355 mL) of decaffeinated coffee or tea with milk and/or sugar, if desired (containing approximately: fat: 21 g, carbohydrates: 67 g, proteins: 19 g; total calories: 533 kcal). For treatment K in a high-fat, high-calorie breakfast was served. […]

AUC(0-inf) (200 mg, 200 mg SF2b, fed, standardized breakfast (Tables 5E, 5G), read-out: AUC∞, Geometric LS Means Treatment G): 103 µg·h/mL | Cmax (200 mg, 200 mg SF2b, fed, standardized breakfast (Tables 5E, 5G), read-out: Cmax, Geometric LS Means Treatment G): 961 ng/mL | AUC(0-t) (200 mg, 200 mg SF2b, standardized breakfast, linear mixed effects model (Table 5B), read-out: AUClast, Geometric Mean Treatment G): 102 µg·h/mL | AUC(0-inf) (200 mg, 200 mg SF2b, standardized breakfast, linear mixed effects model (Table 5B), read-out: AUC∞, Geometric Mean Treatment G): 104 µg·h/mL | Cmax (200 mg, 200 mg SF2b, standardized breakfast, linear mixed effects model (Table 5B), read-out: Cmax, Geometric Mean Treatment G): 984 ng/mL | AUC(0-t) (200 mg, Treatment F: single 200 mg (SF2b), fasted, read-out: AUClast, Geo. Mean): 61.1 µg·h/mL | AUC(0-t) (200 mg, Treatment F: single 200 mg (SF2b), fasted, read-out: AUClast, Mean): 64.8 µg·h/mL | AUC(0-t) (200 mg, Treatment F: single 200 mg (SF2b), fasted, read-out: AUClast, Median): 59 µg·h/mL | AUC(0-inf) (200 mg, Treatment F: single 200 mg (SF2b), fasted, read-out: AUC∞, Geo. Mean): 59.6 µg·h/mL | AUC(0-inf) (200 mg, Treatment F: single 200 mg (SF2b), fasted, read-out: AUC∞, Mean): 62 µg·h/mL | AUC(0-inf) (200 mg, Treatment F: single 200 mg (SF2b), fasted, read-out: AUC∞, Median): 58.5 µg·h/mL | Cmax (200 mg, Treatment F: single 200 mg (SF2b), fasted, read-out: Cmax, Geo. Mean): 573 ng/mL | Cmax (200 mg, Treatment F: single 200 mg (SF2b), fasted, read-out: Cmax, Mean): 602 ng/mL | Cmax (200 mg, Treatment F: single 200 mg (SF2b), fasted, read-out: Cmax, Median): 580 ng/mL | half-life (200 mg, Treatment F: single 200 mg (SF2b), fasted, read-out: t1/2, term, Geo. Mean (converted)): 188 h | half-life (200 mg, Treatment F: single 200 mg (SF2b), fasted, read-out: t1/2, term, Mean (converted)): 205 h | half-life (200 mg, Treatment F: single 200 mg (SF2b), fasted, read-out: t1/2, term, Median (converted)): 174 h | Tmax (200 mg, Treatment F: single 200 mg (SF2b), fasted): 7.5 h | AUC(0-t) (200 mg, Treatment G: single 200 mg (SF2b), fed, standardized breakfast, read-out: AUClast, Geo. Mean): 97.2 µg·h/mL | AUC(0-t) (200 mg, Treatment G: single 200 mg (SF2b), fed, standardized breakfast, read-out: AUClast, Mean): 100 µg·h/mL | AUC(0-t) (200 mg, Treatment G: single 200 mg (SF2b), fed, standardized breakfast, read-out: AUClast, Median): 89.5 µg·h/mL | AUC(0-inf) (200 mg, Treatment G: single 200 mg (SF2b), fed, standardized breakfast, read-out: AUC∞, Geo. Mean): 102 µg·h/mL | AUC(0-inf) (200 mg, Treatment G: single 200 mg (SF2b), fed, standardized breakfast, read-out: AUC∞, Mean): 106 µg·h/mL | AUC(0-inf) (200 mg, Treatment G: single 200 mg (SF2b), fed, standardized breakfast, read-out: AUC∞, Median): 95.3 µg·h/mL | Cmax (200 mg, Treatment G: single 200 mg (SF2b), fed, standardized breakfast, read-out: Cmax, Geo. Mean): 961 ng/mL | Cmax (200 mg, Treatment G: single 200 mg (SF2b), fed, standardized breakfast, read-out: Cmax, Mean): 996 ng/mL | Cmax (200 mg, Treatment G: single 200 mg (SF2b), fed, standardized breakfast, read-out: Cmax, Median): 892 ng/mL | half-life (200 mg, Treatment G: single 200 mg (SF2b), fed, standardized breakfast, read-out: t1/2, term, Geo. Mean (converted)): 193 h | half-life (200 mg, Treatment G: single 200 mg (SF2b), fed, standardized breakfast, read-out: t1/2, term, Mean (converted)): 198 h | half-life (200 mg, Treatment G: single 200 mg (SF2b), fed, standardized breakfast, read-out: t1/2, term, Median (converted)): 208 h | Tmax (200 mg, Treatment G: single 200 mg (SF2b), fed, standardized breakfast): 8 h | AUC(0-t) (800 mg, 800 mg SF2b, fasted, linear mixed effects model (Table 5A), read-out: AUClast, Geometric Mean Treatment D): 140 µg·h/mL | AUC(0-inf) (800 mg, 800 mg SF2b, fasted, linear mixed effects model (Table 5A), read-out: AUC∞, Geometric Mean Treatment D): 148 µg·h/mL | Cmax (800 mg, 800 mg SF2b, fasted, linear mixed effects model (Table 5A), read-out: Cmax, Geometric Mean Treatment D): 1220 ng/mL | AUC(0-t) (800 mg, 800 mg SF2b, fasted, read-out: AUClast, Geometric LS Means Treatment J): 107 µg·h/mL | AUC(0-inf) (800 mg, 800 mg SF2b, fasted, read-out: AUC∞, Geometric LS Means Treatment J): 110 µg·h/mL | Cmax (800 mg, 800 mg SF2b, fasted, read-out: Cmax, Geometric LS Means Treatment J): 991 ng/mL | AUC(0-t) (800 mg, 800 mg SF2b, fed, high-fat, high-calorie breakfast, read-out: AUClast, Geometric LS Means Treatment K): 421 µg·h/mL | AUC(0-inf) (800 mg, 800 mg SF2b, fed, high-fat, high-calorie breakfast, read-out: AUC∞, Geometric LS Means Treatment K): 422 µg·h/mL
SMILES: COc1cc(NC(C(=O)c2c[nH]c3ccc(OC(F)(F)F)cc23)c2ccc(Cl)cc2OC)cc(S(C)(=O)=O)c1 (stereo not drawn) [Compound (a)]
